Measurements published in patent publication US7521570B2, “Medicinal compositions containing 6-hydroxybenzbromarone or salts thereof” (Torli Pharmaceutical Co., Ltd., priority 2004, dated 2009).
Read-outs that look alike come from different tables or passages of the source.

Experiments:
URAT1 = molecular target: T1, URAT1 (Homo sapiens, UniProt Q96S37); assay: Inhibition of [14C] uric acid uptake by URAT1 in MDCK-URAT1 cells; assay type: cell-based; conditions: for IC50: MDCK-URAT1 cells, 100 μM [14C] uric acid
T1 construct: expressed in transfected cells
T1 sequence (Q96S37 1-553): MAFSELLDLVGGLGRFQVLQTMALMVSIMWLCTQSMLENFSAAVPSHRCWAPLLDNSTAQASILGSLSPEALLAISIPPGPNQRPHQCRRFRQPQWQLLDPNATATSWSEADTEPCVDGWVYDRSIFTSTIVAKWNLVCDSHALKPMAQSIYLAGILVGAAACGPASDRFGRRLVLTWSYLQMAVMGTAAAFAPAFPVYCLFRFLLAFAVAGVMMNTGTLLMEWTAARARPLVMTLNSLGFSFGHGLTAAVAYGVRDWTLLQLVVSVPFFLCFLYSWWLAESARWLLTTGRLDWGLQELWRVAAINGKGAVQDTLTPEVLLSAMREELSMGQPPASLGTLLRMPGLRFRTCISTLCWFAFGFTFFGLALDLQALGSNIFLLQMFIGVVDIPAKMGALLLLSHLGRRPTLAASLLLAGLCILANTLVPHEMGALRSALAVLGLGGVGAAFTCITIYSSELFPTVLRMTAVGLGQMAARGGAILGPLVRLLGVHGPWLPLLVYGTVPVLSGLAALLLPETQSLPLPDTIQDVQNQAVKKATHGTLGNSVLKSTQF
Experimental: cDNA of URAT1 was introduced into MDCK cells and stably expressing cells (MDCK-URAT1) were created. […] Experiments are carried out each three times and level of IC50 was analyzed by profit.
cDNA of URAT1 which was integrated into mammal expression vector pcDNA3.1, or pcDNA3.1 was gene transfected to MDCK cells to create stably expressing cells (MDCK-URAT1) and mock cells.
This MDCK-URAT1 was cultured in the minimal essential medium containing 5% fetal bovine serum and 400 μg/mL geneticin, cells were placed in 24-well dish (as many as 10^5 cells per one well) and cultured for 2 days. After that, it was washed with Dulbecco's modified PBS and subjected to pre-incubation in the Dulbecco's modified PBS solution for 10 min.
After that, it was washed with Dulbecco's modified PBS solution three times and cells were collected by 0.1N NaOH. Scintillation cocktail was then added to count dpm of [^14C] uric acid being taken in cells by liquid scintillation counter. Values of IC50 were analyzed by profit.

[1] = molecular target: T2, xanthine oxidase derived from bovine milk (Bos taurus, UniProt P80457); assay: Xanthine oxidase inhibitory activity (absorbance 292 nm, xanthine substrate); assay type: biochemical; conditions: for IC50: 100 μM xanthine, 37° C., pH 7.4, read-out: IC50 level, xanthine oxidase
T2 construct: xanthine oxidase derived from bovine milk; from tissue; host or cells: bovine milk
T2 sequence (P80457 whole entry): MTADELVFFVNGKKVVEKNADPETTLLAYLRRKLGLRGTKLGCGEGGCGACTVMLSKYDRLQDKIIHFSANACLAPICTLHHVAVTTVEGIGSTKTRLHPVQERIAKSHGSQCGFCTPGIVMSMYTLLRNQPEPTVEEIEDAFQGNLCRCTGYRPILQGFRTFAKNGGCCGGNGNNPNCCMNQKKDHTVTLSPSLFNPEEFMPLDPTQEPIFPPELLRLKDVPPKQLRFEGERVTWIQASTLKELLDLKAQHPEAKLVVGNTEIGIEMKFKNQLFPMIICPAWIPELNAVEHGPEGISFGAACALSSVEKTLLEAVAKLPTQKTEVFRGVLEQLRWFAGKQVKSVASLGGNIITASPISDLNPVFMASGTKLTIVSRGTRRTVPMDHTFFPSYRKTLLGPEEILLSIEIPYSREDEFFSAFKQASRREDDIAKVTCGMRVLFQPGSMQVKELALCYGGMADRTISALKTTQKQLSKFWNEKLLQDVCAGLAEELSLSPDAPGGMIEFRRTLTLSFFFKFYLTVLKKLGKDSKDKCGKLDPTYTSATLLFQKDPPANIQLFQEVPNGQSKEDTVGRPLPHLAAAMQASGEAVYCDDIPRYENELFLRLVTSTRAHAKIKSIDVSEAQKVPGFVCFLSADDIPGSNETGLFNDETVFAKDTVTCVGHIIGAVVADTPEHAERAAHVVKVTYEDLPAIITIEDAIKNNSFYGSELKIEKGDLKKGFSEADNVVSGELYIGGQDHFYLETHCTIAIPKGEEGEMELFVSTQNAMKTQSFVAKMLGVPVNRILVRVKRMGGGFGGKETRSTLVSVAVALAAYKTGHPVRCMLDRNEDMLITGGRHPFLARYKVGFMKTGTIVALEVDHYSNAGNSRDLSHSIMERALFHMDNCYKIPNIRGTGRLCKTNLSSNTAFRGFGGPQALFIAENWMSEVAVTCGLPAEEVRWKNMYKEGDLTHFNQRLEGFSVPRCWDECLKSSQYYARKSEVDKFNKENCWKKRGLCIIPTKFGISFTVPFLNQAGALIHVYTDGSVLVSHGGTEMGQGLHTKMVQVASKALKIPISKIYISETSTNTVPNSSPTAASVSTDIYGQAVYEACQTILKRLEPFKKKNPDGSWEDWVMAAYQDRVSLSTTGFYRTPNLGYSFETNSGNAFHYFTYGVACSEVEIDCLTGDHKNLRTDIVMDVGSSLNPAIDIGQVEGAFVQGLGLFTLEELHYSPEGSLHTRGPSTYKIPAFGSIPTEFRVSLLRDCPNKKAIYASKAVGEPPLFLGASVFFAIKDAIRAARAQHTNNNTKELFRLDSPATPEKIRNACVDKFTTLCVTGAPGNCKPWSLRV
Experimental: Subsequently, xanthine oxidase inhibitory activity of 6-hydroxybenzbromarone was investigated. Activity of xanthine oxidase derived from bovine milk was checked as follows: Using 100 μM of xanthine as the substrate, and using a system for measuring chronologically the absorbance (292 nm) of […] generated at 37° C. in 1/15 M phosphate buffer solution (pH 7.4) in which 0.1 M phosphate buffer solution was diluted by half volume of water, inhibitory activity of 6-hydroxybenzbromarone or of oxypurinol that is a metabolic product of allopurinol was measured to analyze IC50.
Activity of xanthine oxidase derived from bovine milk was analyzed as follows.

[2] = Clinical pharmacokinetic test, single dose of benzbromarone, plasma and urine by LC/MS/MS; assay type: in vivo, human; conditions: for detection in the urine: till 72 hours; for concentration at 72 h: male, human, po, 100 mg as benzbromarone
Experimental: Next, clinical pharmacokinetic test was carried out for a case where single dose of benzbromarone was given to healthy male adult subjects.
Results of plasma concentration of 6-hydroxybenzbromarone are shown in FIG. 3 and results of urine concentration of the same are shown in FIG. 4, respectively. The vertical axis of FIG. 3 represents plasma level (ng/mL) and the horizontal axis represents time elapsed (hour). […] The vertical axis of FIG. 4 represents concentration in the urine (ng/mL) and the horizontal axis represents time elapsed (hour).

[3] = Pharmacokinetic test of single dose in rats; assay type: in vivo; conditions: single dose of 100 mg/kg; for Cmax / AUC(0-t): rat, in vivo, po; for AUC(0-t): read-out: AUC0-24hr
[4] = molecular target: T3, human OAT4 (human organic anion transporter 4) (Homo sapiens, UniProt Q9NSA0); assay: Inhibition of 3H-estrone sulfate uptake by OAT4 in S2 cells; assay type: cell-based; conditions: S2 cells expressing OAT4
T3 sequence (Q9NSA0 1-550): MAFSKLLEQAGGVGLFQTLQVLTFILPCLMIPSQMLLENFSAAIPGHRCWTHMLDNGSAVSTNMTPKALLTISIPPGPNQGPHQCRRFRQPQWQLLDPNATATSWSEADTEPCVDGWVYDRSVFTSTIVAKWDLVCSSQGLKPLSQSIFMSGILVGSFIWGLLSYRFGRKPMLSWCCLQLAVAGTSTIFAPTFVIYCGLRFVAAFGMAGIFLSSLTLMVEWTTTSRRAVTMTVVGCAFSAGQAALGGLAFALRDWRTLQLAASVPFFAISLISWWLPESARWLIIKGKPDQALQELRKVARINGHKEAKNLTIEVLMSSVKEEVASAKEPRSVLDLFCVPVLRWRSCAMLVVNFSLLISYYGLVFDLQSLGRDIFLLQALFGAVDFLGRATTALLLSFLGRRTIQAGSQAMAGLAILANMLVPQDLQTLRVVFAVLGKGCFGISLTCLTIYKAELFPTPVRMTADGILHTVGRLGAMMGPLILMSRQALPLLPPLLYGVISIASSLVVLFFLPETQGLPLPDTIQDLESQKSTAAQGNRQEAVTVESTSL
Source text: OAT4 is an organic anion transporter which is present at luminal side membrane of the proximal renal tubule and takes organic anion such as uric acid into cells, and estrone sulfate is known as the typical substrate of this. […] Results are shown in FIG. 6 in the form of relative value while the amount of uptake of ^3H-estrone sulfate in a case where nothing is present (control) is considered to be 100%.

[5] = molecular target: T4, human OAT3 (human organic anion transporter 3) (Homo sapiens, UniProt Q8TCC7); assay: Inhibition of 3H-estrone sulfate uptake by OAT3 in S2 cells; assay type: cell-based; conditions: for Ki: OAT3, 3H-estrone sulfate uptake
T4 construct: expressed in transfected cells; host or cells: S2 cells expressing OAT3
T4 sequence (Q8TCC7 1-542): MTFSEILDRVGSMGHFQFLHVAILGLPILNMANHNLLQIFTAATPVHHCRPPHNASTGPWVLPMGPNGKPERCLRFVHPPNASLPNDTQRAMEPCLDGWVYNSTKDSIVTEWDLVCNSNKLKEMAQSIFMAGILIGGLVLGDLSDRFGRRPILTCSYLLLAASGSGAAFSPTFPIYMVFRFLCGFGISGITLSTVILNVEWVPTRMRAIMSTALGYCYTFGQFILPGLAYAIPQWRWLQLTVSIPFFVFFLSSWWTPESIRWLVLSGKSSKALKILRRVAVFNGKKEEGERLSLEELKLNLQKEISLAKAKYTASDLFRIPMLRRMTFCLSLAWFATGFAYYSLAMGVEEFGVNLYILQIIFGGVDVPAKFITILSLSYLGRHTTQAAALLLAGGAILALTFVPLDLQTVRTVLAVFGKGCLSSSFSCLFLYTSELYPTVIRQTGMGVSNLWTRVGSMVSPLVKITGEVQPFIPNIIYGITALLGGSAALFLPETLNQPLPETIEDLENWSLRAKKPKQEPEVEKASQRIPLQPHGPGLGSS
Experimental: OAT3 is an organic anion transporter which is present at basal-lateral (vascular side) membrane of the proximal renal tubule and takes organic anion such as uric acid into cells, and estrone sulfate is known as the typical substrate of this.
The horizontal axis of FIG. 8 represents 1/S (L/mmol) and the vertical axis represents 1/V (mg protein/μM/min), black square (▪) denotes 6-hydroxybenzbromarone (0.3 μM) case and white square (□) denotes control.

[6] = healthy male adults, single oral 100 mg benzbromarone

Structure (SMILES)	IC50 (URAT1; 37° C. 2 min, three experiments, read-out: level of IC50, uric acid uptake by URAT1, after three times experiments)	IC50 (URAT1; single experiment shown in figure, read-out: level of IC50, uric acid uptake by URAT1 (FIG. 1 / FIG. 2))	intensity of uric acid uptake inhibition relative to benzbromarone (URAT1; fraction of that of benzbromarone)	IC50 [1]	inhibitory activity of xanthine oxidase relative to oxypurinol ([1]; fraction of that of oxypurinol)	AUC in plasma relative to benzbromarone [2, 6]	detection in the urine [2, 6]	concentration at 72 h ([2]; plasma, read-out: plasma concentration 72 hours after administration)	concentration at 72 h ([2]; urine, read-out: urine concentration 72 hours after administration)	Cmax [3]	AUC(0-t) [3]	absorption from the digestive tract into bloodstream [3]	IC50 [4]	inhibitory style at OAT3 ([5]; 3H-estrone sulfate uptake, 0.3 μM, FIG. 8)	Ki ([5]; FIG. 8, read-out: Ki-value (competitive inhibition))	Ki ([5]; FIG. 8, read-out: Ki-value (noncompetitive inhibition))	IC50 ([5]; S2 cells expressing OAT3, 3H-estrone sulfate (50 nmol/L))	time after administration at which eliminated from plasma [2, 6]	IC50 [5]
CCc1oc2cc(O)ccc2c1C(=O)c1cc(Br)c(O)c(Br)c1 [6-hydroxybenzbromarone, 2-ethyl-6-hydroxy-3-(3′,5′-dibromo-4′-hydroxy-benzoyl)-benzofuran]	200 ± 60 nM	130 nM	approximately ⅙	68000 nM	approximately ⅕	twice or higher level than that of benzbromarone	high level	~110 ng/mL	~170 ng/mL	34600 ng/mL	291 µg·h/mL	absorbed favorably	3200 nM	mixed type of competitive inhibition and noncompetitive inhibition	1000 nM	700 nM	300 nM		
CCc1oc2ccccc2c1C(=O)c1cc(Br)c(O)c(Br)c1 [benzbromarone]							detected little in the urine			90200 ng/mL	887 µg·h/mL		5400 nM					48 h	700 nM
O=c1[nH]c(=O)c2c[nH]nc2[nH]1 [oxypurinol, reference compound]				13000 nM															
